“And” between values parts separate entries of the source, which are not always exact repeats. Identical values can stand only once. Like-named read-outs stand apart in the source and are kept apart here.
Assays:
[1] = molecular target: T1, BlaC (Mycobacterium tuberculosis, UniProt P9WKD3); experiment: BlaC fluorogenic inhibition assay with FC5 (dose-response); format: biochemical; details: Table S5 HTS hits, 30 minute inhibitor pre-incubation, two independent repeats; for IC50: pIC50 BlaC
T1 construct: made in house; host or cells: E. coli
Description: Two types of controls were used. […] In control 2, the BlaC mixture was substituted with the assay buffer. This mixture was incubated for 30 minutes at room temperature without shaking. […] Data were analysed using ActivityBase (IDBS).

[2] = molecular target: T2, LdtMt2 (Mycobacterium tuberculosis, UniProt I6Y9J2); experiment: biochemical; format: biochemical; parameters: made in house; host or cells: E. coli; details: for IC50: Table S5 HTS hits, 30 minute inhibitor pre-incubation, two independent repeats, read-out: pIC50 LdtMt2 (converted)
[3] = molecular target: T2, LdtMt2; experiment: Rate constant of covalent target inactivation (kinact/KI), endpoint competition assay with probe 2; format: biochemical; parameters: made in house; host or cells: E. coli
[4] = test system: M. tuberculosis (strain H37Rv); experiment: Extracellular assay: M. tuberculosis H37Rv in medium under replicating conditions; format: cell-based, Mycobacterium tuberculosis
[5] = test system: HepG2 cells; experiment: HepG2 cytotoxicity assay (CellTiter Glo); format: cell-based; details: 48 h, ATP read-out
Description: Solutions of the test compounds (250 nL per well; 11 serial dilutions of 1/3 with starting concentration 100 μM) were dispensed in tissue-culture treated black clear-bottomed 384-well plates (Greiner, cat. no. 781091) with an Echo 555 instrument. 25 μL of HepG2 (ATCC HB-8065) cells (∼3000 cells per well) grown to confluency in Eagle's Minimal Essential Medium (MEM) supplemented with 10% (v/v) heat-inactivated FBS, 1% (v/v) non-essential amino acids (NEAA), and 1% (v/v) penicillin/streptomycin were added to each well. Plates were incubated at 37 °C with 20% O2 and 5% CO2 for 48 h. The plates were then equilibrated to room temperature. ATP levels, measured with CellTiter Glo kit (Promega), were used as cell viability read-out. 25 μL of CellTiter Glo substrate dissolved in the buffer was added to each well. Plates were incubated at room temperature for 10 min and read on ViewLux (PerkinElmer) […].

[6] = molecular target: T2, LdtMt2; experiment: biochemical; format: binding; parameters: made in house; host or cells: E. coli; details: for ΔTm at 500 µM: read-out: ΔTm: difference in melting point of LdtMt2 relative to unreacted LdtMt2 (43.8 °C)
Description: LdtMt2 (5 μM) was incubated with the inhibitor (500 μM) in assay buffer (50 mM tris pH 7.5) for 30 minutes at room temperature in 96-well white PCR plates (25 μL final volume, Starlab). SYPRO Orange (final concentration 6×, according to manufacturer's definition, Invitrogen) was then added and the plate was sealed using a transparent plastic film (Polyolefin StarSeal, Starlab). Fluorescence was monitored (with λex = 492 nm and λem = 610 nm) using a CFX96 Touch Real-Time PCR Detection System (Bio-Rad), while the temperature was increased from 20 to 95 °C in increments of 0.2 °C. Melting temperatures (Tms) were determined using the CFX Maestro Software (Bio-Rad).

[7] = Intrinsic thiol reactivity (kchem), competition with probe 2 for L-glutathione; format: physicochemical
[8] = test system: M. tuberculosis (strain H37Rv) growth in THP1 cells; experiment: Intracellular assay: Mtb H37Rv-Luc in THP-1 macrophages; format: cell-based, Mycobacterium tuberculosis; details: 5 days, extrapolated from dose-response curve
[9] = 100 nM LdtMt2, 10 µM probe 2, 3 h incubation, n=4
[10] = Table S5, L-glutathione 500 nM, probe 2 10 µM, 15 h
[11] = 5 µM LdtMt2, 500 µM inhibitor, SYPRO Orange, 50 mM Tris pH 7.5
[12] = 100 nM LdtMt2, 10 µM probe 2, 3 h incubation, n=4, read-out: kinact/KI

T1 sequence (P9WKD3 35-307): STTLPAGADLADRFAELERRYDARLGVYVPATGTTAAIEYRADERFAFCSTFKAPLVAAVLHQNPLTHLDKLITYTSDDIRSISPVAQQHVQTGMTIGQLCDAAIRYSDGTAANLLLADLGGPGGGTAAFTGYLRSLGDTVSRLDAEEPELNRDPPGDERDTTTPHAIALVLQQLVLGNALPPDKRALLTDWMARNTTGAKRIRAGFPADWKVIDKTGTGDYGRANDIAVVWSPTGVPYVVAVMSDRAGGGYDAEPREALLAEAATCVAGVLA
T2 sequence (I6Y9J2 56-408): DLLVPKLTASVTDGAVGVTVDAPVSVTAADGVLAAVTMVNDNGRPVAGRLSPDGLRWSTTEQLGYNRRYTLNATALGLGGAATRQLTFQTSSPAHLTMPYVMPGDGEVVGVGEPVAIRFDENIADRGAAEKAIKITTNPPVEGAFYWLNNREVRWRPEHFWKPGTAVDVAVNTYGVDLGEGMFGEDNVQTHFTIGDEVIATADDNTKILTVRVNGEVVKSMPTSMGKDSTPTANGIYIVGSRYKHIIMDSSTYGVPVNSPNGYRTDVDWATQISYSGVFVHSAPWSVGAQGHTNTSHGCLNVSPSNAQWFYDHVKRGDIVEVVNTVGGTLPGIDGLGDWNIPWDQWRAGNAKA

Row | Structure (SMILES) | pIC50 BlaC [1] | LE (ligand efficiency) [2] | kinact/KI [3, 9] | ΔTm: difference in melting point of LdtMt2 relative to unreacted LdtMt2 (43.8 °C) [6] | Tm: melting point of LdtMt2 after pre-incubation with the compound ([6]; pH 7.5, in °C (unit assumed)) | IC50 [1] | LE (ligand efficiency) ([2]; Table S5, for LdtMt2) | IC50 [2] | ΔTm at 500 µM [6] | other results
1 | N#Cn1c(-c2cncnc2)nc2ccccc21 [Compound 25] | < 4.0 | 0.66 | 77.5 ± 6.0 M⁻¹ s⁻¹ | – | – | – | – | – | – | –
2 | N#Cn1c(-c2cc(F)cc(C(F)(F)F)c2)nc2ccccc21 [Compound 23] | < 4.0 | 0.51 | 265 M⁻¹ s⁻¹ | -1.3 | 42.5 ± 0.09 | – | – | – | – | MIC50 [4]: > 100 µM; IC50 [5]: 28.8 µM
3 | N#Cn1c(-c2ccncc2)nc2ccc(-c3ccncc3)cc21 [Compound 34] | < 4.0 | 0.49 | 68.4 ± 2.7 M⁻¹ s⁻¹ | -1.7 | 42.1 ± 0.09 | – | – | – | – | –
4 | COc1ccc(CN2C(=O)C(=O)c3cc(Br)cc(C)c32)cc1OC [Compound 17] | < 4.0 | 0.47 | – | +3.0 | 46.8 ± 0.00 | – | – | – | – | kchem (apparent intrinsic thiol reactivity) [7, 10]: < 0.08 M⁻¹ s⁻¹; MIC50 [4]: > 100 µM; IC50 [5]: 53.5 ± 6.7 µM; pIC50, 0 min [2]: 6.48 ± 0.14; pIC50, 10 min [2]: 6.33 ± 0.14; pIC50, 60 min [2]: 6.28 ± 0.45; pIC50, 120 min [2]: 6.45 ± 0.26
5 | O=C1CN(C(=O)C=Cc2ccco2)c2ccccc2N1 [Compound 12] | < 4.0 | 0.56 | – | +0.3 | 44.1 ± 0.09 | – | – | – | – | kchem (apparent intrinsic thiol reactivity) [7, 10]: 0.55 ± 0.11 M⁻¹ s⁻¹
6 | O=C(NC(Cc1ccccc1)C(=O)CCl)c1cc(Cc2ccccc2)on1 (centres unmarked) [Compound 1] | < 4.0 | 0.41 | 1152 ± 87 M⁻¹ s⁻¹ | – | – | – | – | – | – | MIC50 intracellular [8]: 35.5 ± 4.9 µM and < 50 µM; MIC50 [4]: > 100 µM
7 | Cc1nc(-c2ccc(-c3nc4ccccc4n3C#N)cc2)cs1 [Compound 30] | – | 0.49 | 236 ± 9.5 M⁻¹ s⁻¹ | -1.6 | 42.2 ± 0.00 | – | – | – | – | MIC50 [4]: > 100 µM; IC50 [5]: 3.98 ± 0.1 µM
8 | O=c1c2cc(Cl)c(Cl)cc2sn1CCO [Compound 15] | – | – | – | – | – | 0.427 µM | 0.74 | 0.0102 µM | -0.3 °C | MIC50 ([4]; Mycobacterium tuberculosis): > 100 µM; IC50 ([5]; Homo sapiens, HepG2): 9.55 ± 0.22 µM; Tm: melting point of LdtMt2 after pre-incubation with the compound [6, 11]: 43.5 ± 0.09 °C
9 | N#CN1CCCN1C(=O)OCc1ccc(Cl)c(Cl)c1 [Compound 37] | – | 0.59 | 8.44 ± 1.2 M⁻¹ s⁻¹ | -1.5 | 42.3 ± 0.09 | – | – | – | – | –
10 | NC(=O)OCC1=C(C(=O)O)N2C(=O)C(NC(=O)C(=CS(=O)(=O)CCc3ccc(O)c(O)c3)c3csc(N)n3)C2SC1 (centres unmarked) [Compound 20] | 7.72 | 0.28 | – | -1.1 | 42.7 ± 0.25 | – | – | – | – | MIC50 intracellular [8]: 38.9 ± 1.8 µM and < 50 µM; MIC50 [4]: > 100 µM; IC50 [5]: > 100 µM
11 | N#Cn1c(-c2cnc(-c3cccs3)nc2)nc2ccccc21 [Compound 31] | – | – | – | – | – | 11.2 µM | 0.51 | 0.0479 µM | -1.7 °C | kinact/KI [3, 12]: 609 ± 11 M⁻¹ s⁻¹; Tm: melting point of LdtMt2 after pre-incubation with the compound [6, 11]: 42.1 ± 0.10 °C
12 | N#Cn1c(-c2ccnnc2)nc2ccccc21 [Compound 24] | < 4.0 | 0.66 | 158 ± 5.7 M⁻¹ s⁻¹ | – | 42.0 ± 0.00 | – | – | – | – | –
13 | CC(N)C(=O)NC1CCN(c2ccc(N3CCCC3)cc2C#N)C1 (centres unmarked) [Compound 39] | < 4.0 | 0.47 | – | -0.7 | 43.1 ± 0.10 | – | – | – | – | MIC50 intracellular [8]: 28.8 ± 0.0 µM and < 50 µM; MIC50 [4]: > 100 µM; IC50 [5]: > 100 µM
14 | NC(=O)C=CC(=O)Nc1ccc(Cl)cc1 [Compound 13] | – | – | – | – | – | > 100 µM | 0.75 | 0.417 µM | 1 °C | kinact/KI [3, 12]: 6.48 ± 0.11 M⁻¹ s⁻¹; Tm: melting point of LdtMt2 after pre-incubation with the compound [6, 11]: 44.8 ± 0.00 °C
15 | N#Cn1c(-c2ccc(OC3CCOCC3)cc2)nc2ccccc21 [Compound 32] | – | 0.47 | 86.3 ± 2.6 M⁻¹ s⁻¹ | -1.5 | 42.3 ± 0.09 | – | – | – | – | –
16 | COc1cccc(NC(=O)/C(Cl)=C(\Cl)S(=O)(=O)Cc2ccccc2Cl)n1 [Compound 8] | – | – | – | – | – | > 100 µM | 0.43 | 0.0692 µM | 0.7 °C | kinact/KI [3]: 91.6 ± 2 M⁻¹ s⁻¹
17 | Cc1ccc(C=CC(=O)Nc2ccc(S(N)(=O)=O)cc2)o1 [Compound 9] | – | 0.53 | 90.7 ± 4.7 M⁻¹ s⁻¹ | – | – | – | – | – | – | Tm: melting point of LdtMt2 after pre-incubation with the compound ([6]; pH 7.5): 43.1 ± 0.09 °C
18 | Cc1ccc(C=CC(=O)Nc2ccccc2C(N)=O)o1 [Compound 11] | < 4.0 | 0.56 | 172 ± 6.0 M⁻¹ s⁻¹ | +0.2 | 44.0 ± 0.16 | – | – | – | – | –
19 | CCC(C)C(NC(=O)OCc1ccccc1)C(=O)CCl (centres unmarked) [Compound 2] | – | – | – | – | – | > 100 µM | 0.56 | 0.0776 µM | -0.1 °C | kinact/KI [3]: 68.4 ± 3.5 M⁻¹ s⁻¹; Tm: melting point of LdtMt2 after pre-incubation with the compound [6, 11]: 43.7 ± 0.09 °C
20 | CS(=O)(=O)c1ccc(F)c(N2C(=O)C=CC2=O)c1 [Compound 4] | – | – | – | – | – | 60.3 µM | 0.62 | 0.0871 µM | 1.8 °C | kinact/KI [3]: 36.5 ± 7.9 M⁻¹ s⁻¹; Tm: melting point of LdtMt2 after pre-incubation with the compound [6, 11]: 45.6 ± 0.28 °C
21 | N#Cn1cnc2ccccc21 [Compound 40] | – | – | – | – | – | – | – | – | – | kchem (apparent intrinsic thiol reactivity) ([7]; Table S10 known cyanating compounds, unit printed in b38 only): 0.90 ± 0.05 M⁻¹ s⁻¹ and 0.90 M⁻¹ s⁻¹; pIC50 LdtMt2 [2]: 6.31 ± 0.03
22 | N#Cn1c(-c2ccncc2)nc2ccc(-c3ccco3)cc21 [Compound 33] | – | 0.51 | 71.8 ± 1.1 M⁻¹ s⁻¹ | -0.5 | 43.3 ± 0.09 | – | – | – | – | –
23 | COc1ccc(COC(=O)C2N3C(=O)C(Br)C3S(=O)(=O)C2(C)C)cc1 (centres unmarked) [Compound 21] | – | 0.45 | 53.2 ± 4.7 M⁻¹ s⁻¹ | -0.7 | 43.1 ± 0.09 | – | – | – | – | –
24 | O=C1C=CC(=O)N1c1ccccc1 [Compound 3] | – | – | – | – | – | 9.33 µM | 0.86 | 0.0708 µM | 1.2 °C | kinact/KI [3]: 3990 ± 356 M⁻¹ s⁻¹; Tm: melting point of LdtMt2 after pre-incubation with the compound [6, 11]: 45.0 ± 0.16 °C
25 | N#Cn1c(-c2ccc(F)cc2C(F)(F)F)nc2ccccc21 [Compound 22] | – | – | – | – | – | > 100 µM | 0.51 | 0.0295 µM | -1.3 °C | kinact/KI [3]: 55.1 ± 3 M⁻¹ s⁻¹; Tm: melting point of LdtMt2 after pre-incubation with the compound [6, 11]: 42.5 ± 0.09 °C
